Laboratory results as given in publication PMC4103815, “P-Glycoprotein Mediated Efflux Limits the Transport of the Novel Anti-Parkinson's Disease Candidate Drug FLZ across the Physiological and PD Pathological In Vitro BBB Models” (PLoS ONE, 2014).

What was measured:
normal rCMECs = test: Cell viability by MTT, normal rCMECs; type: cell-based, rat; details: 24 h; FLZ 1 to 50 µM, zosuquidar 5 µM, FTC 10 µM
Method: (§1) To investigate the effects of FLZ on the growth of normal and PD rCMECs monolayers, a cell proliferation assay was performed. […] Therefore, in all following experiments, we used FLZ (1, 5 and 10 µM), zosuquidar (5 µM) and FTC (10 µM) as standard treatment.
(§2) Supplementary file pone.0102442.s001.tif: Figure S1 The cytotoxicity of FLZ (A) and inhibitors (B) in rat cerebral microvessel endothelial cells. rCMECs were exposed to the indicated concentration of FLZ (A) and transport inhibitors zosuquidar and FTC for 24 h. Each point represents the mean ± SD of three determinations. Each experiment was performed in three times. (TIF) Click here for additional data file.

PD rCMECs = test: Cell viability by MTT, PD rCMECs; type: cell-based, rat; details: 24 h; FLZ 1 to 50 µM, zosuquidar 5 µM, FTC 10 µM
Method: as §1, §2

[1] = tested on: physiological in vitro BBB model; test: Sodium fluorescein permeability, physiological co-culture BBB model; type: in vitro ADME, rat; details: co-culture model under normal conditions
Method: (§3) The flux of sodium fluorescein (NaF) across the BBB models was determined as previously described. Prior to transport studies, culture media from the top and bottom compartments were replaced with HBSS. 100 µg/ml Na-F (MW: 376 Da) was added to the upper inserts of the Transwell system. At 30, 60, 90 and 120 min, 50 µl samples were taken from the acceptor compartment and immediately replaced with fresh buffer. The concentrations of the fluorescein in samples from the upper to lower compartments were determined by fluorescence multiwell plate reader (excitation wavelength: 485 nm; emission wavelength: 535 nm). Based on the rate of influx of sodium fluorescein into the bottom compartment, permeability coefficients were calculated.

[2] = tested on: PD pathological in vitro BBB model; test: Sodium fluorescein permeability, PD pathological co-culture BBB model; type: in vitro ADME, rat; details: co-culture model under Parkinson's conditions
Method: as §3

SMILES	viability of normal rCMECs (MTT) (normal rCMECs)	viability of PD rCMECs (MTT) (PD rCMECs)	paracellular Papp of NaF [1]	paracellular Papp of NaF [2]
COc1ccc2c3c([nH]c2c1)[C@H](C=C(C)C)N1C(=O)[C@@H]2CCCN2C(=O)[C@@H]1C3 [FTC, Fumitremorgin C]	did not effect	did not effect	–	–
O=C([O-])c1ccccc1-c1c2ccc(=O)cc-2oc2cc([O-])ccc12.[Na+].[Na+] [NaF, sodium fluorescein]	–	–	1.92±0.19 10^−6 cm/s	2.18±0.26 10^−6 cm/s
O[C@@H](COc1cccc2ncccc12)CN1CCN([C@@H]2c3ccccc3[C@@H]3[C@H](c4ccccc42)C3(F)F)CC1 [zosuquidar]	did not effect	did not effect	–	–
